Our source for the melting point values is a melting point compilation (Tetko et al.; mined from patent text by program, amines drawn as free bases though some values may be those of a salt).

One may read the melting point as the temperature, or range, at which the solid turns liquid.

In the case of `O=C1c2ccccc2C(=O)N1CC(=O)N1c2ccccc2N(Cc2ccc(OCc3ccccc3)cc2)C(=O)[C@H]2CCC[C@H]21` (relative stereo), the melting point was 179 to 181 °C.

For the compound `COC(=O)CC1(C)C(=O)N(C)c2ccc(OC)cc21` (stereo not drawn), the melting point is 83 to 84 °C.

`COc1cc2nc(N3CCN(C(=O)C=Cc4ccoc4)CC3)nc(N)c2cc1OC` displayed a melting point of 252 to 253 °C.

Consider `OC(COc1ccc(Cl)cc1Cl)(COc1ccc(Cl)cc1Cl)Cn1cncn1`, for which the melting point was found to be 136 °C.

For the compound `CC(=O)C(O)C1OC(Sc2ncc(Cl)cn2)C(O)(C(C)=O)C(O)(C(C)=O)C1(O)C(C)=O` (stereo not drawn), the melting point was found to be 172 °C.

The compound `Oc1ccc(-c2nnc(Cc3ccc(Oc4ccccc4)cc3)o2)cc1` came in with a melting point of 202 to 203 °C.

In turn, `COc1ccc(Cc2sc3ccccc3c2-c2ccc(-c3ccc(OC(Cc4ccccc4)C(=O)O)cc3)cc2)cc1OC` (stereo not drawn) gave a melting point of 59 to 61 °C.

`O=C(O)c1c(-c2ccc(Cl)cc2)ccnc1Br` returned a melting point of 204 to 208 °C.

Consider `CCOC(=O)C1=C(COC(C)=O)Nc2nc(N3CCOCC3)nc(N3CCOCC3)c2C1c1cccc(Cl)c1Cl` (stereo not drawn), for which the melting point was determined as 161 °C.

`NS(=O)(=O)c1ccc(-n2nc(C(F)(F)F)cc2-c2ccc(Cl)cc2)cc1` showed a melting point of 126 to 128 °C.

Compound `COc1cc(C(C)=O)ccc1-c1ccccc1F` gave a melting point of 84 to 85 °C.

Compound `CCOC(=O)C(CCCCNC(=O)OC(C)(C)C)NC(=O)C=CC(=O)c1ccccc1` (stereo not drawn) showed a melting point of 91 to 94 °C.

`Cc1nnc2ccc(-c3cccc(NC(=O)C4CCC4)c3)nn12` came in with a melting point of 242 to 245 °C.

Take `CC(C)(C)OC(=O)Nc1cc(N)cc(Cl)c1`: the melting point was in the range of 85 to 87 °C.

In the case of `CC(=O)C(C#N)c1ccccc1` (stereo not drawn), the melting point is over 215 °C.

With `Cc1ccc(S(=O)(=O)NC2(c3ccccc3)C3=NCC(C)(C)CN3c3ccccc32)cc1` (stereo not drawn), the melting point lay in the range of 224 to 226 °C.

`O=C1c2ccccc2C(=O)N1c1n[nH]c2ccc(O)cc12`: the melting point is over 270 °C.

`O=C(O)c1cc(=O)cc(C=Cc2ccc(O)cc2)o1` yielded a melting point of 256 °C.

The compound `CSc1ccc(C(C#N)=NO)cc1` came in with a melting point of 132 to 133 °C.

`CN(C)c1ccc(C(=O)c2ccccc2)cc1NC(=O)c1ccn2c1CSC2c1cccnc1` (stereo not drawn): the melting point was 186 °C.

`CCCNC(=O)C1CC(=O)N(Cc2ccccc2)C1` (stereo not drawn) had a melting point of 86 to 87 °C.

The compound `Fc1cc2c(cc1F)C(n1cc[nH]c1=S)CC2` (stereo not drawn) displayed a melting point of 183 to 187 °C.

Take `CCOC(=O)C(C#N)=NOC(=O)Oc1cc(Cl)c(Cl)cc1Cl`: the melting point is 101 to 103 °C.

Compound `OCc1ccc(-c2cncc(OC3SCC(O)C(O)C3O)c2)cc1` (stereo not drawn) had a melting point of 153 °C.

The compound `O=[N+]([O-])c1ccc2c(Nc3ccncc3)noc2c1` displayed a melting point of 296 to 300 °C.

`CCNCC1(O)CCN(c2cc3c(cc2F)c(=O)c(C(=O)O)cn3C2CC2)C1` (stereo not drawn) displayed a melting point of 202 to 207 °C.

The compound `COc1ccc(Oc2c(Br)cc(C#N)cc2Br)cc1Cc1ccc(=O)[nH]n1` yielded a melting point of 214 to 216 °C.

In turn, `Cn1nnnc1-c1ccc(CCl)cc1` showed a melting point of 90 to 92 °C.

`Cc1c(Br)c(C#N)nn1C` had a melting point of 92 to 94 °C.

For the compound `O=S(=O)(Nc1ccc(OCc2ccc3ccccc3n2)cc1)c1cccc(C(F)(F)F)c1`, the melting point lay within 81 to 83 °C.

For `c1ccc(CNCC2CCn3c(nc4ccccc43)S2)cc1` (stereo not drawn), the melting point was in the range of 155 to 156 °C.

`COc1nscc1[N+](=O)[O-]` registered a melting point of 118 to 122 °C.

As for `COc1ccc(-c2cc3ccccc3o2)cc1`, the melting point is 145 to 147 °C.

Compound `CCOC(=O)C(Cc1cccc(OC)c1Oc1ccc([N+](=O)[O-])cc1)(NC(C)=O)C(=O)OCC` displayed a melting point of 189 to 190 °C.

`COC(=O)C1(OC)CC(C)C(=O)C=C1O` (stereo not drawn) returned a melting point of 117 to 118 °C.

Compound `O=C1NCCN1C1CCCc2ccccc21` (stereo not drawn) returned a melting point of 134 to 140 °C.

Consider `N#Cc1cc(Br)c(OC(=O)OCOC(=O)COc2ccc(Cl)cc2Cl)c(Br)c1`, for which the melting point lay within 88 to 89 °C.

For `Nc1ccc(Sc2cnc3cc(Cl)ccc3n2)cc1`, the melting point lay within 144 to 147 °C.

With `Cc1nc2c(N[C@@H]3c4ccccc4C[C@H]3O)cc(C(=O)O)cn2c1C` (relative stereo), the melting point fell in the range of 246 to 249 °C.

`CCN(CC)C(=O)n1cnc(SCC2CC2)n1` had a melting point of 51 to 52 °C.

In turn, `CCCSc1c2ccccc2nc2c1c(C)nn2-c1ccccn1` returned a melting point of 91 to 93 °C.

With `O=C1Nc2cc(F)ccc2N2CCN(Cc3ccncc3)CC12` (stereo not drawn), the melting point was in the range of 269 to 272 °C.

In turn, `CN1CCC[C@@H]1Cc1c(-c2ccccc2)[nH]c2ccccc12` had a melting point of 132 °C.

For the compound `CCn1ncc2c(OC)c3c(nc21)C(=O)c1ccccc1CC3`, the melting point lay within 197 to 200 °C.

`CCCCCCCCCCCCS(=O)(=O)c1ccc2c(c1)C(=O)c1c(c(O)c3ccccc3c1O)C2=O`: the melting point fell in the range of 185 to 186 °C.

Compound `O=C1CC2(CCNCC2)c2cc(Br)ccc2N1` registered a melting point of 218 °C.

The compound `C[C@@H](n1cnc2cc(-c3ccc(C#N)cc3)sc2c1=O)[C@](O)(Cn1cncn1)c1ccc(F)cc1F` gave a melting point of 231 to 232 °C.

Take `Cc1ccc(-n2nc(N3CCN(C(N)=O)CC3)c3ccccc32)cc1`: the melting point lay in the range of 146 to 148 °C.

On to `CCCc1c(C(=O)N(C)Cc2ccc3c(Br)c(OCC#N)ccc3c2)cnn1-c1ccccc1`, for which the melting point lay in the range of 76 to 80 °C.

Consider `CCc1ccc(C=NNC(=O)c2ccc(O)cc2)s1`, for which the melting point is 194 °C.

`O=c1nc(-c2ccnc(N3CCN(c4ccc(F)cc4)CC3)c2)sc2ccccc12` showed a melting point of 233 to 234 °C.

As to `COC(=O)c1c(-c2ccc(C(F)(F)F)cc2)ccc2ccccc12`, the melting point lay within 74 to 76 °C.

For `CN1CCN(c2nc(-c3ccccc3)c3ccccc3n2)CC1`, the melting point was in the range of 101 to 122 °C.

Compound `O=c1[nH]c2cc([N+](=O)[O-])ccc2n(Cc2ccc(P(=O)(O)O)cc2)c1=O` yielded a melting point of 253 to 265 °C.

With `CC(=NN)c1ccc2c(c1)C(C(Cl)(Cl)Cl)OC(C(Cl)(Cl)Cl)O2` (stereo not drawn), the melting point was determined as 159 °C.

Compound `Cc1cc(Cl)c(Cl)cc1C(=O)O` gave a melting point of 176 to 178 °C.

`CC(C)c1ncc(O)c(O)n1` gave a melting point of 187 °C.

Take `CCc1cc(C(=O)c2ccccc2Cl)c(-n2c(C)nnc2CNC(=O)/C=C/c2ccccc2N)s1`: the melting point was in the range of 141 to 143 °C.

Turning to `Cc1nn(-c2ccccn2)c2nc3ccccc3c(Cl)c12`, the melting point was 157 to 159 °C.

The compound `CCOCc1nc2c(N)nc(C)c(C)c2n1NC1CCOCC1` displayed a melting point of 120 to 122 °C.

For the compound `CC(=O)c1ccc(N)c(C(=O)c2ccccc2)c1`, the melting point is 158 to 161 °C.

Turning to `CC(C)c1cccc(C(C)C)c1NC(=O)Cc1ccccc1NCCc1ccccc1`, the melting point lay within 120 to 123 °C.

`COc1cc(Nc2c(C#N)cnc3cc(-c4cc5ccccc5o4)ccc23)c(Cl)cc1Cl` showed a melting point of 276 to 277 °C.

Compound `O=C(O)c1ccc2nc(/C=C/c3ccccc3)cc(=O)n2c1` registered a melting point of 293 to 295 °C.

As for `CC(C)c1nc(C(C)C)c(C(C)O)c(-c2ccc(F)cc2)c1-c1ccccc1` (stereo not drawn), the melting point fell in the range of 155 to 157 °C.

In the case of `O=C(CC1CCOCC1)N[C@H]1CC[C@H](CCN2CCN(c3nccc4ccoc34)CC2)CC1`, the melting point turned out to be 213 °C.

In turn, `CCc1c(NC(=O)c2ccc(Br)cc2)ccc2cc(CN3CCCC3)cnc12` showed a melting point of 230 to 231 °C.

On to `COc1cccc2c(=O)cc(C=Cc3ccc(C(=O)O)cc3)oc12`, for which the melting point lay within 298 to 300 °C.

`COc1cc(Cc2cnc(NCCO)nc2N)cc(OC)c1OC` gave a melting point of 146 °C.

With `C=CCN(CC=C)c1nc(NC(=O)CCCC(=O)OC)n2oc(=O)nc2n1`, the melting point lay in the range of 164 to 165 °C.

`CCOC(=O)c1ccc(COCc2csc3nc(C(=O)NCc4cccc(SC)c4)[nH]c(=O)c23)cc1`: the melting point fell in the range of 207 to 209 °C.

In the case of `CC1(C)CN(C(=N)NC=C(C#N)C(=O)N(CC2CC2)c2cccc(C(F)(F)F)c2)C(=O)N1`, the melting point was 121 to 122 °C.

As for `CCOC(=O)C1=CC2(CCC1S(=O)(=O)Nc1ccc(F)cc1Cl)CC2` (stereo not drawn), the melting point is 125 to 126 °C.

The compound `Cc1ccc(C2c3c(cc(C)c(Br)c3C)OC2(C)C)cc1` (stereo not drawn) had a melting point of 116 to 118 °C.

Consider `CN(C)C(=O)c1ccc2c(c1)CC(=O)N2`, for which the melting point lay in the range of 147 to 148 °C.

`CCOc1ccc(-c2nc(-c3cccc(C(N)=NO)n3)cs2)cc1OCC`: the melting point lay within 218 to 220 °C.

For the compound `CSc1nc(OCC2COC(C)(C)O2)c2c(-c3ccccc3Cl)n[nH]c2n1` (stereo not drawn), the melting point was in the range of 120 to 122 °C.

`CC(=O)NNc1ccc(N(Cc2ccccc2)C(=S)Nc2ccccc2)cc1` registered a melting point of 114 to 117 °C.

In turn, `O=S(=O)(c1ccc(Cl)cc1)N1CCCC1c1ccc(F)c(F)c1` (racemic) displayed a melting point of 121 °C.

As for `CCOc1cc(-c2ccc(-c3ccc(N=Nc4ccccn4)c(OCC)c3)o2)ccc1N=Nc1ccccn1`, the melting point is 205 to 210 °C.

`CC1(C)OC(=O)Nc2ccc(I)cc21` had a melting point of 196 to 197 °C.

In turn, `CN1C(CCCCCBr)Nc2cc(Cl)c(S(=O)(=O)NCc3ccccc3)cc2S1(=O)=O` (stereo not drawn) returned a melting point of 141 to 142 °C.

With `COc1ccc(CC2CCN(C(=O)C(=O)Nc3ccc(NS(C)(=O)=O)cc3)CC2)cc1`, the melting point fell in the range of 206 to 208 °C.

For the compound `COc1ccc(C2CNCc3c2ccc(OC)c3Cl)cc1OC` (stereo not drawn), the melting point fell in the range of 130 to 132 °C.

Compound `CCCOc1ccc(-c2cncn2-c2ccc(S(C)(=O)=O)cc2)cc1` had a melting point of 167 to 169 °C.

Compound `Nc1cccc2c1CN(c1c(F)cc3c(=O)c(C(=O)O)cn(-c4ccc(F)cc4)c3c1F)C2` gave a melting point of 269 to 274 °C.

Take `CCOC(=O)c1cc(N2C(=O)C3=C(CCCC3)C2=O)ccc1O`: the melting point came out at 90 °C.

Compound `c1cc2cc3ccc(OCCN4CCCCC4)cc3nc2cc1OCCN1CCCCC1` showed a melting point of 129 to 130 °C.
